This experiment concerns the target T1, human M1 receptor (hCHRM1) (Homo sapiens, UniProt P11229).
T1 construct: expressed in transfected cells; host or cells: CHO-K1
T1 sequence (P11229 1-460): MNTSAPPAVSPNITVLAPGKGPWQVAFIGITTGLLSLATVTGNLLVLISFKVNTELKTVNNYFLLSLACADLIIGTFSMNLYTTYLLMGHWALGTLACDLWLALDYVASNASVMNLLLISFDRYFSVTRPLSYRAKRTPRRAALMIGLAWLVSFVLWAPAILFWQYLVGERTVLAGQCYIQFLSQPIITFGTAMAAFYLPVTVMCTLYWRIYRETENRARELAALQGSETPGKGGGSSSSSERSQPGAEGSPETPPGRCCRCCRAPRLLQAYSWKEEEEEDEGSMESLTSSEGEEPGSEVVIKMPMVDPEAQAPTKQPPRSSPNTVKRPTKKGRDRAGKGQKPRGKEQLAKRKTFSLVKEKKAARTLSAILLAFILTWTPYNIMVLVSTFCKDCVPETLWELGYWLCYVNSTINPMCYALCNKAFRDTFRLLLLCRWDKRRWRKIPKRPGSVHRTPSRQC
The experiment in a line: Measurement of M1 receptor positive allosteric modulator (M1PAM) activity, calcium fluorescence (FLIPRtetra) in CHO-K1 cells in the presence of acetylcholine at EC20. The experiment is classed as cell-based. Conditions: in the presence of acetylcholine at EC20 (final 0.6 nM), CHO-K1 cells expressing hCHRM1; for EC50: inflection point of M1PAM activity, read-out: IP value; for activity (%) at 10 μM: test compound 10 μM. The method, then: Measurement of M1 Receptor Positive Allosteric Modulator (M1PAM) Activity
The activity of a test compound in the presence of acetylcholine at EC20 concentration (final concentration 0.6 nM), which affords an action corresponding to 20% of the maximum activity, was measured as PAM activity. The method is as follows. CHO-K1 cells forcibly expressing a human M1 receptor (hCHRM1) were plated on a 384-well black clear bottom plate (BD Falcon) at 5,000 cells/well, and cultured in an incubator at 37° C., 5% CO2 for 1 day. The medium in the cell plate was removed, and assay buffer A (Recording medium (DOJINDO LABORATORIES), 0.1% BSA (Wako Pure Chemical Industries, Ltd.), 2.5 μg/mL Fluo-4 AM (DOJINDO LABORATORIES), 0.08% Pluronic F127 (DOJINDO LABORATORIES), 1.25 mM probenecid (DOJINDO LABORATORIES)) containing a calcium indicator was added at 30 μL/well. The cells were left standing in the incubator at 37° C., 5% CO2 for 30 min, and further left standing at room temperature for 30 min. A test compound prepared by diluting with assay buffer B (HBSS (Invitrogen), 20 mM HEPES (Invitrogen), 0.1% BSA) containing 2.4 nM acetylcholine was added at 10 μL/well, and the fluorescence was measured by FLIPRtetra (Molecular Devices) for 1 min every 1 second. With the definition that the amount of change in the fluorescence on addition of acetylcholine (final concentration 1 μM) is 100% and that on addition of DMSO instead of a test compound is 0%, the activity (%) of the test compound and the inflection point in the concentration-dependent curve of the test compound were calculated as IP values.

Molecules are shown by their SMILES. Structures can show the parent of a compound that is named as a salt.

As for `Cc1cc(-c2ccc(CN3Cc4ccnc(O[C@@H]5CCC[C@H]5O)c4C3=O)cc2)ccn1` (single isomer, unassigned) [Example 242, 4-((trans-2-hydroxycyclopentyl)oxy)-2-(4-(2-methylpyridin-4-yl)benzyl)-1,2-dihydro-3H-pyrrolo[3,4-c]pyridin-3-one], the EC50 came out at 8.2 nM and the “activity (%) at 10 μM” value was 110%.

Regarding `Cc1cc(-c2ccc(CN3Cc4ccnc(O[C@@H]5CCC[C@H]5O)c4C3=O)cc2)ccn1` (single isomer, unassigned) [Example 243, 4-((trans-2-hydroxycyclopentyl)oxy)-2-(4-(2-methylpyridin-4-yl)benzyl)-1,2-dihydro-3H-pyrrolo[3,4-c]pyridin-3-one], the EC50 amounted to 37 nM and the “activity (%) at 10 μM” value amounted to 104%.

In the case of `Cn1ccc(-c2ccc(CN3Cc4ccnc(OCC5CCCO5)c4C3=O)cc2)n1` (single isomer, unassigned) [Example 245, 2-(4-(1-methyl-1H-pyrazol-3-yl)benzyl)-4-((tetrahydrofuran-2-yl)methoxy)-1,2-dihydro-3H-pyrrolo[3,4-c]pyridin-3-one], the EC50 is 57 nM and the “activity (%) at 10 μM” value was 101%.

`Cn1ccc(-c2ccc(CN3Cc4ccnc(OCC5CCCO5)c4C3=O)cc2)n1` (single isomer, unassigned) [Example 246, 2-(4-(1-methyl-1H-pyrazol-3-yl)benzyl)-4-((tetrahydrofuran-2-yl)methoxy)-1,2-dihydro-3H-pyrrolo[3,4-c]pyridin-3-one]: the EC50 came to 9.4 nM and the “activity (%) at 10 μM” value was 100%.

`Cc1nn(C)cc1-c1ccc(CN2Cc3cccc(O[C@@H]4CCOC[C@H]4O)c3C2=O)cc1` (single isomer, unassigned) [Example 248, 1,5-anhydro-2-deoxy-3-O-(2-(4-(1,3-dimethyl-1H-pyrazol-4-yl)benzyl)-3-oxo-2,3-dihydro-1H-isoindol-4-yl)-threo-pentitol]: the EC50 came out at 3 nM and the “activity (%) at 10 μM” value amounted to 117%.

Regarding `Cc1nn(C)cc1-c1ccc(CN2Cc3ccnc(O[C@@H]4CCC[C@H]4O)c3C2=O)cc1` (single isomer, unassigned) [Example 255, 2-(4-(1,3-dimethyl-1H-pyrazol-4-yl)benzyl)-4-((trans-2-hydroxycyclopentyl)oxy)-1,2-dihydro-3H-pyrrolo[3,4-c]pyridin-3-one], the EC50 is 48 nM and the “activity (%) at 10 μM” value turned out to be 106%.

For `Cc1nn(C)cc1-c1ccc(CN2Cc3ccnc(O[C@@H]4CCC[C@H]4O)c3C2=O)cc1` (single isomer, unassigned) [Example 256, 2-(4-(1,3-dimethyl-1H-pyrazol-4-yl)benzyl)-4-((trans-2-hydroxycyclopentyl)oxy)-1,2-dihydro-3H-pyrrolo[3,4-c]pyridin-3-one], the EC50 stood at 4 nM and the “activity (%) at 10 μM” value was 101%.

`Cc1cc(-c2ccc(CN3Cc4ccnc(O[C@@H]5CCC[C@H]5O)c4C3=O)cc2)ccn1` (single isomer, unassigned) [Example 258, 4-((trans-2-hydroxycyclopentyl)oxy)-2-(4-(2-methylpyridin-4-yl)benzyl)-1,2-dihydro-3H-pyrrolo[3,4-c]pyridin-3-one hydrochloride]: the EC50 was 5.7 nM. For the setting “hydrochloride”, the “activity (%) at 10 μM” value came out at 107%.

As for `Cc1cc(-c2ccc(CN3Cc4ccnc(O[C@@H]5CCC[C@H]5O)c4C3=O)cc2)ccn1` (single isomer, unassigned) [Example 259, 4-((trans-2-hydroxycyclopentyl)oxy)-2-(4-(2-methylpyridin-4-yl)benzyl)-1,2-dihydro-3H-pyrrolo[3,4-c]pyridin-3-one hydrochloride], the EC50 turned out to be 85 nM. Moreover, the “activity (%) at 10 μM” value (hydrochloride) turned out to be 109%.

With `O=C1c2c(cccc2O[C@@H]2CCOC[C@H]2O)CN1Cc1ccc(Br)cc1` (single isomer, unassigned) [Example 268, 1,5-anhydro-3-O-(2-(4-bromobenzyl)-3-oxo-2,3-dihydro-1H-isoindol-4-yl)-2-deoxy-threo-pentitol], the EC50 was 39 nM and the “activity (%) at 10 μM” value amounted to 103%.

`O=C1c2c(cccc2O[C@@H]2COCC[C@H]2O)CN1Cc1ccc(Br)cc1` (single isomer, unassigned) [Example 271, 1,5-anhydro-2-O-(2-(4-bromobenzyl)-3-oxo-2,3-dihydro-1H-isoindol-4-yl)-4-deoxy-threo-pentitol]: the EC50 stood at 130 nM and the “activity (%) at 10 μM” value is 97%.

As to `CCC(CO)Oc1nccc2c1C(=O)N(Cc1ccc(-c3cn(C)nc3C)cc1)C2` (single isomer, unassigned) [Example 274, 2-(4-(1,3-dimethyl-1H-pyrazol-4-yl)benzyl)-4-((l-hydroxybutan-2-yl)oxy)-1,2-dihydro-3H-pyrrolo[3,4-c]pyridin-3-one], the EC50 turned out to be 12 nM and the “activity (%) at 10 μM” value was found to be 102%.

For the compound `CCC(CO)Oc1nccc2c1C(=O)N(Cc1ccc(-c3cn(C)nc3C)cc1)C2` (single isomer, unassigned) [Example 275, 2-(4-(1,3-dimethyl-1H-pyrazol-4-yl)benzyl)-4-((l-hydroxybutan-2-yl)oxy)-1,2-dihydro-3H-pyrrolo[3,4-c]pyridin-3-one], the EC50 came to 76 nM and the “activity (%) at 10 μM” value is on record as 104%.

As for `CCC(O)COc1nccc2c1C(=O)N(Cc1ccc(-c3cn(C)nc3C)cc1)C2` (single isomer, unassigned) [Example 276, 2-(4-(1,3-dimethyl-1H-pyrazol-4-yl)benzyl)-4-(2-hydroxybutoxy)-1,2-dihydro-3H-pyrrolo[3,4-c]pyridin-3-one], the EC50 amounted to 3.6 nM and the “activity (%) at 10 μM” value amounted to 99%.

With `CCC(O)COc1nccc2c1C(=O)N(Cc1ccc(-c3cn(C)nc3C)cc1)C2` (single isomer, unassigned) [Example 277, 2-(4-(1,3-dimethyl-1H-pyrazol-4-yl)benzyl)-4-(2-hydroxybutoxy)-1,2-dihydro-3H-pyrrolo[3,4-c]pyridin-3-one], the EC50 amounted to 42 nM and the “activity (%) at 10 μM” value worked out at 96%.

`O=C1c2c(cccc2O[C@@H]2CCOC[C@H]2O)CN1Cc1ccc(Cl)cc1` (single isomer, unassigned) [Example 292, 1,5-anhydro-3-O-(2-(4-chlorobenzyl)-3-oxo-2,3-dihydro-1H-isoindol-4-yl)-2-deoxy-threo-pentitol]: the EC50 stood at 48 nM and the “activity (%) at 10 μM” value worked out at 101%.

Take `O=C1c2c(cccc2O[C@@H]2COCC[C@H]2O)CN1Cc1ccc(Cl)cc1` (single isomer, unassigned) [Example 295, 1,5-anhydro-2-O-(2-(4-chlorobenzyl)-3-oxo-2,3-dihydro-1H-isoindol-4-yl)-4-deoxy-threo-pentitol]: the EC50 was 150 nM and the “activity (%) at 10 μM” value was 100%.

With `O=C1c2c(cccc2O[C@@H]2CCOC[C@H]2O)CN1Cc1ccc(F)cc1F` (single isomer, unassigned) [Example 299, 1,5-anhydro-2-deoxy-3-O-(2-(2,4-difluorobenzyl)-3-oxo-2,3-dihydro-1H-isoindol-4-yl)-threo-pentitol], the EC50 was found to be 18 nM and the “activity (%) at 10 μM” value amounted to 91%.

Take `O=C1c2c(cccc2O[C@@H]2COCC[C@H]2O)CN1Cc1ccc(F)cc1F` (single isomer, unassigned) [Example 301, 1,5-anhydro-2-deoxy-4-O-(2-(2,4-difluorobenzyl)-3-oxo-2,3-dihydro-1H-isoindol-4-yl)-threo-pentitol]: the EC50 amounted to 120 nM and the “activity (%) at 10 μM” value was 89%.

On to `O=C1c2c(ccnc2O[C@@H]2CCCC[C@H]2O)CN1Cc1c(F)cc(F)cc1F` (single isomer, unassigned) [Example 315, 4-((trans-2-hydroxycyclohexyl)oxy)-2-(2,4,6-trifluorobenzyl)-1,2-dihydro-3H-pyrrolo[3,4-c]pyridin-3-one], for which the EC50 was 6.6 nM and the “activity (%) at 10 μM” value worked out at 101%.

The record behind these values is patent US9777005B2 (Takeda Pharmaceutical Company Limited, priority 2012, dated 2017).
